Measurements taken from patent US11713309B2, “Solid forms of Cerdulatinib” (Alexion Pharmaceuticals, Inc., priority 2018, dated 2023).
Values after ≈ are worked out from the molar mass of the structure shown. Blank lines part the entries; values can stand above or below the molecule they belong to.

Columns and labels:
Type in all cases: physicochemical
[1] = Kinetic solubility in water; details: 37° C.; for pH of supernatant: water (native pH 7.6)
Protocol: (§1) Kinetic solubility testing was conducted as follows: About 40-55 mg material was weighed into a 5-mL EP pipe. 4 mL of water/bio-relevant media (SGF, FaSSIF, or FeSSIF) was added into the corresponding sample pipe (drug loading: ˜10 mg/mL calculated as freebase). The pipes were capped tightly and the material was verified to be in contact with the media. The sample vials were placed on a roller and start rolling at 37° C. (rate: 25 r/min). Samples were taken at 1, 2, 4, 24 h. For each time point, 1.0 mL of suspension was transferred into a 2-mL centrifuge tube and the samples were centrifuged. The supernatant was filtered via 0.45 μm PTFE membrane and solubility and pH were measured. An XRPD test on residual solids was conducted.

[2] = Kinetic solubility in SGF; details: for Solubility (mg/mL) 1 h / Solubility (mg/mL) 2 h / Solubility (mg/mL) 4 h / Solubility (mg/mL) 24 h: 37° C.; for Solubility (mg/mL) 1 h: drug loading ~10 mg/mL as freebase; for pH 1 h / pH 2 h / pH 4 h / pH 24 h: supernatant, SGF (native pH 1.8)
Protocol: as §1

[3] = Kinetic solubility in FaSSIF; details: for Solubility (mg/mL) 1 h / Solubility (mg/mL) 2 h / Solubility (mg/mL) 4 h / Solubility (mg/mL) 24 h / Final Form: FaSSIF; for Solubility (mg/mL) 1 h / Solubility (mg/mL) 2 h / Solubility (mg/mL) 4 h / Solubility (mg/mL) 24 h: 37° C.; for Solubility (mg/mL) 1 h: drug loading ~10 mg/mL as freebase; for Final Form: XRPD of residual solids; for Solubility (mg/mL) 1 h / Final Form / pH 1 h: 1 h; for Solubility (mg/mL) 2 h / Final Form / pH 2 h: 2 h; for Solubility (mg/mL) 4 h / Final Form / pH 4 h: 4 h; for Solubility (mg/mL) 24 h / Final Form / pH 24 h: 24 h; for pH 1 h / pH 2 h / pH 4 h / pH 24 h: supernatant, FaSSIF (native pH 6.5)
Protocol: as §1

[4] = Kinetic solubility in FeSSIF; details: for Solubility (mg/mL) 1 h / Solubility (mg/mL) 2 h / Solubility (mg/mL) 4 h / Solubility (mg/mL) 24 h: 37° C.; for Solubility (mg/mL) 1 h: drug loading ~10 mg/mL as freebase; for pH 1 h / pH 2 h / pH 4 h / pH 24 h: supernatant
Protocol: as §1

[5] = 1 h, listed as Naphthalene disulfonate Type A
[6] = 2 h, listed as Naphthalene disulfonate Type A
[7] = 4 h, listed as Naphthalene disulfonate Type A
[8] = 24 h, listed as Naphthalene disulfonate Type A
[9] = listed as Naphthalene disulfonate Type A

- pH of supernatant [1, 5]: 2.8
- pH of supernatant [1, 6]: 2.6
- pH of supernatant [1, 7]: 2.5
- pH of supernatant [1, 8]: 2.4
- Kinetic solubility ([1]; water, 1 h, listed as Naphthalene disulfonate Type A): 1.4 µg/mL
- Kinetic solubility ([1]; water, 2 h, listed as Naphthalene disulfonate Type A): 2.5 µg/mL
- Kinetic solubility ([1]; water, 4 h, listed as Naphthalene disulfonate Type A): 1.5 µg/mL
- Kinetic solubility ([1]; water, 24 h, listed as Naphthalene disulfonate Type A): 1.6 µg/mL
- Solubility (mg/mL) 1 h ([2]; SGF, 1 h, listed as Naphthalene disulfonate Type A): 0.019 mg/mL (≈ 42.6 µM)
- Solubility (mg/mL) 2 h ([2]; SGF, 2 h, listed as Naphthalene disulfonate Type A): 0.016 mg/mL (≈ 35.9 µM)
- Solubility (mg/mL) 4 h ([2]; SGF, 4 h, listed as Naphthalene disulfonate Type A): 0.018 mg/mL (≈ 40.4 µM)
- Solubility (mg/mL) 24 h ([2]; SGF, 24 h, listed as Naphthalene disulfonate Type A): 0.016 mg/mL (≈ 35.9 µM)
- pH 1 h [2, 5]: 2.0
- pH 2 h [2, 6]: 1.9
- pH 4 h [2, 7]: 2.0
- pH 24 h [2, 8]: 1.8
- Solubility (mg/mL) 1 h [3, 9]: 0.0035 mg/mL (≈ 7.86 µM)
- Solubility (mg/mL) 2 h [3, 9]: 0.0037 mg/mL (≈ 8.3 µM)
- Solubility (mg/mL) 4 h [3, 9]: 0.0030 mg/mL (≈ 6.73 µM)
- Solubility (mg/mL) 24 h [3, 9]: 0.0027 mg/mL (≈ 6.06 µM)
- Final Form [3, 9]: New form X
- pH 1 h [3, 9]: 2.8
- pH 2 h [3, 9]: 2.7
- pH 4 h [3, 9]: 2.6
- pH 24 h [3, 9]: 2.5
- Solubility (mg/mL) 1 h [4, 5]: 0.0088 mg/mL (≈ 19.8 µM)
- Solubility (mg/mL) 2 h [4, 6]: 0.0079 mg/mL (≈ 17.7 µM)
- Solubility (mg/mL) 4 h [4, 7]: 0.0069 mg/mL (≈ 15.5 µM)
- Solubility (mg/mL) 24 h [4, 8]: 0.0059 mg/mL (≈ 13.2 µM)
- Final Form ([4]; XRPD of residual solids, 1 h, 2 h, 4 h, 24 h, listed as Naphthalene disulfonate Type A): New form X
- pH 1 h [4, 5]: 4.6
- pH 2 h [4, 6]: 4.6
- pH 4 h [4, 7]: 4.6
- pH 24 h [4, 8]: 4.6
Compound: CCS(=O)(=O)N1CCN(c2ccc(Nc3ncc(C(N)=O)c(NC4CC4)n3)cc2)CC1 [4-(cyclopropylamino)-2-(4-(4-(ethylsulfonyl)piperazin-1-yl)phenylamino)pyrimidine-5-carboxamide]

- pH of supernatant ([1]; 1 h, listed as Esylate Type A): 2.3
- pH of supernatant ([1]; 2 h, listed as Esylate Type A): 2.0
- pH of supernatant ([1]; 4 h, listed as Esylate Type A): 2.2
- pH of supernatant ([1]; 24 h, listed as Esylate Type A): 2.1
- Final Form of residual solids (XRPD) ([1]; water, 1 h, 2 h, 4 h, 24 h, listed as Esylate Type A): Freebase Form II
- Kinetic solubility ([1]; water, 1 h, listed as Esylate Type A): 1700 µg/mL
- Kinetic solubility ([1]; water, 2 h, listed as Esylate Type A): 1500 µg/mL
- Kinetic solubility ([1]; water, 4 h, listed as Esylate Type A): 1400 µg/mL
- Kinetic solubility ([1]; water, 24 h, listed as Esylate Type A): 1300 µg/mL
- Solubility (mg/mL) 1 h ([2]; SGF, 1 h, listed as Esylate Type A): 0.092 mg/mL (≈ 206 µM)
- Solubility (mg/mL) 2 h ([2]; SGF, 2 h, listed as Esylate Type A): 0.10 mg/mL (≈ 224 µM)
- Solubility (mg/mL) 4 h ([2]; SGF, 4 h, listed as Esylate Type A): 0.087 mg/mL (≈ 195 µM)
- Solubility (mg/mL) 24 h ([2]; SGF, 24 h, listed as Esylate Type A): 0.083 mg/mL (≈ 186 µM)
- Final Form ([2]; XRPD of residual solids, SGF, 1 h, 2 h, 4 h, 24 h): HC1 salt Form I
- pH 1 h ([2]; 1 h, listed as Esylate Type A): 2.1
- pH 2 h ([2]; 2 h, listed as Esylate Type A): 1.9
- pH 4 h ([2]; 4 h, listed as Esylate Type A): 2.1
- pH 24 h ([2]; 24 h, listed as Esylate Type A): 1.9
- Solubility (mg/mL) 1 h ([3]; listed as Esylate Type A): 0.015 mg/mL (≈ 33.7 µM)
- Solubility (mg/mL) 2 h ([3]; listed as Esylate Type A): 0.012 mg/mL (≈ 26.9 µM)
- Solubility (mg/mL) 4 h ([3]; listed as Esylate Type A): 0.024 mg/mL (≈ 53.9 µM)
- Solubility (mg/mL) 24 h ([3]; listed as Esylate Type A): 0.0040 mg/mL (≈ 8.98 µM)
- Final Form [3]: Freebase Form II
- pH 1 h ([3]; listed as Esylate Type A): 5.2
- pH 2 h ([3]; listed as Esylate Type A): 5.0
- pH 4 h ([3]; listed as Esylate Type A): 4.3
- pH 24 h ([3]; listed as Esylate Type A): 3.8
- Solubility (mg/mL) 1 h ([4]; 1 h, listed as Esylate Type A): 0.060 mg/mL (≈ 135 µM)
- Solubility (mg/mL) 2 h ([4]; 2 h, listed as Esylate Type A): 0.027 mg/mL (≈ 60.6 µM)
- Solubility (mg/mL) 4 h ([4]; 4 h, listed as Esylate Type A): 0.014 mg/mL (≈ 31.4 µM)
- Solubility (mg/mL) 24 h ([4]; 24 h, listed as Esylate Type A): 0.011 mg/mL (≈ 24.7 µM)
- Final Form 2 h, 4 h, 24 h ([4]; XRPD of residual solids, 2 h, 4 h, 24 h): Freebase Form II
- pH 1 h ([4]; 1 h, listed as Esylate Type A): 4.8
- pH 2 h ([4]; 2 h, listed as Esylate Type A): 4.7
- pH 4 h ([4]; 4 h, listed as Esylate Type A): 4.7
- pH 24 h ([4]; 24 h, listed as Esylate Type A): 4.4
Compound: CCS(=O)(=O)N1CCN(c2ccc(Nc3ncc(C(N)=O)c(NC4CC4)n3)cc2)CC1 [Compound I esylate Type A, 4-(cyclopropylamino)-2-(4-(4-(ethylsulfonyl)piperazin-1-yl)phenylamino)pyrimidine-5-carboxamide]
